Paper PMC7872314, “Modeling Bioavailable Concentrations in Zebrafish Cell Lines and Embryos Increases the Correlation of Toxicity Potencies across Test Systems” (Environmental Science & Technology, 2020)
Like-named read-outs stand apart in the source and are kept apart here.

Legend:
[1] = test system: ZF4 (fibroblasts) cell line; test: Neutral red, fluorescence (NRf), AB/CFDA/NR multiplex, lysosome stability; type: cell-based, zebrafish (Danio rerio); details: Danio rerio, Fibroblast
[2] = test system: ZF4 (fibroblasts) cell line; test: ATP assay (ATP/LDH multiplex), ATP metabolism; type: cell-based, zebrafish (Danio rerio); details: Danio rerio, Fibroblast
[3] = test system: ZF4 (fibroblasts) cell line; test: Neutral red, absorbance (NRa), AB/CFDA/NR multiplex, lysosome stability; type: cell-based, zebrafish (Danio rerio); details: Danio rerio, Fibroblast
[4] = test system: zebrafish embryos; test: animal or person; type: in vivo, zebrafish (Danio rerio); details: for EC50: Danio rerio
[5] = test system: ZFL (hepatocytes) cell line; test: cells; type: cell-based, zebrafish (Danio rerio); details: Danio rerio, Hepatocyte
[6] = test system: ZF4 and ZFL cell lines; test: Cytotoxicity assays, all endpoints, both cell lines (mean/range); type: cell-based, zebrafish (Danio rerio); details: 48 h
[7] = test system: ZFL (hepatocytes) cell line; test: cells; type: cell-based, zebrafish (Danio rerio); details: Danio rerio, Hepatocyte; remark: listed apart in the source
[8] = test system: ZFL (hepatocytes) cell line; test: cells; type: cell-based, zebrafish (Danio rerio); details: Danio rerio, Hepatocyte; remark: listed apart in the source
[9] = test system: ZFL (hepatocytes) cell line; test: cells; type: cell-based, zebrafish (Danio rerio); details: Danio rerio, Hepatocyte; remark: listed apart in the source
[10] = test system: ZFL (hepatocytes) cell line; test: cells; type: cell-based, zebrafish (Danio rerio); details: Danio rerio, Hepatocyte; remark: listed apart in the source
[11] = test system: ZF4 (fibroblasts) cell line; test: alamarBlue (AB) endpoint of AB/CFDA/NR multiplex, cellular respiration; type: cell-based, zebrafish (Danio rerio); details: Danio rerio, Fibroblast
[12] = test system: ZF4 (fibroblasts) cell line; test: BCA assay (MTS/BCA multiplex), protein amount; type: cell-based, zebrafish (Danio rerio); details: Danio rerio, Fibroblast
[13] = test system: zebrafish embryos; parameters: method as in earlier work; details: nominal, cited from earlier work
[14] = test system: ZFL (hepatocytes) cell line; test: cells; type: cell-based, zebrafish (Danio rerio); details: Danio rerio, Hepatocyte; remark: listed apart in the source
[15] = ref Comptox, PubChem or DrugBank; cited from earlier work
[16] = test system: ZFL (hepatocytes) cell line; test: cells; type: cell-based, zebrafish (Danio rerio); details: Danio rerio, Hepatocyte; remark: listed apart in the source
[17] = test system: diverse mammalian cell assay results; parameters: method as in https://comptox.epa.gov/dashboard/; details: COMPTOX; ref https://comptox.epa.gov/dashboard/; read-out: median AC50; cited from earlier work
[18] = test system: ZF4 (fibroblasts) cell line; test: CFDA endpoint of AB/CFDA/NR multiplex, membrane stability; type: cell-based, zebrafish (Danio rerio); details: Danio rerio, Fibroblast
[19] = test system: ZF4 (fibroblasts) cell line; test: MTS assay (MTS/BCA multiplex), NAD(P)H metabolism; type: cell-based, zebrafish (Danio rerio); details: Danio rerio, Fibroblast

Question: Which results are given for CCCSc1ccc2nc(NC(=O)OC)[nH]c2c1 [Albendazole, albendazole]?
Answer: IC50 ([1]; NR-fluo - ZF4, log10 of IC50, read-out: LogIC50 (converted)): 3610 nM; IC50 ([1]; NR-fluo - ZF4, read-out: IC50): 3610 nM; IC50 ([1]; ZF4, 48 h exposure, nominal, log10, read-out: logIC50 (log10 IC50;nom) NRf (converted)): 3630 nM; IC50 ([1]; ZF4, 48 h exposure, nominal, read-out: IC50;nom NRf): 3610 nM; IC50 ([2]; ATP - ZF4, log10 of IC50, read-out: LogIC50 (converted)): 3250 nM; IC50 ([2]; ATP - ZF4, read-out: IC50): 3250 nM; IC50 ([2]; ZF4, 48 h exposure, nominal, log10, read-out: logIC50 (log10 IC50;nom) ATP (converted)): 3240 nM; IC50 ([2]; ZF4, 48 h exposure, nominal, read-out: IC50;nom ATP): 3250 nM; IC50 ([3]; NR-abs - ZF4, log10 of IC50, read-out: LogIC50 (converted)): 2360 nM; IC50 ([3]; NR-abs - ZF4, read-out: IC50): 2360 nM; IC50 ([3]; ZF4, 48 h exposure, nominal, log10, read-out: logIC50 (log10 IC50;nom) NRa (converted)): 2340 nM; IC50 ([3]; ZF4, 48 h exposure, nominal, read-out: IC50;nom NRa): 2360 nM; IC50 ([3]; ZF4 cell line, NRa endpoint, nominal, read-out: IC50;nom): 0.63 µg/mL; difference in toxicity (EC50;nom) between 48 hpf and 144 hpf ([4]; 48 hpf time point less sensitive than 144 hpf): approximately the same; log EC50;nom (mFET) ([4]; 48 hpf, nominal, log10, listed as Abz): -6.783 M; EC50 ([4]; 48 hpf, nominal, log10, read-out: log EC50;nom (mFET) (converted)): 166 nM; EC50 ([4]; 48 hpf, nominal, read-out: EC50;nom (embryo)): 0.05 µg/mL; EC50 ([4]; read-out: EC50 48hpf): 165 nM; EC50 ([4]; read-out: EC50;nom (mFET)): 165 nM; IC50 ([5]; BCA - ZFL, log10 of IC50, read-out: LogIC50 (converted)): 30.9 nM; IC50 ([5]; BCA - ZFL, read-out: IC50): 30.9 nM; IC50 ([5]; ZFL, 48 h exposure, nominal, log10, read-out: logIC50 (log10 IC50;nom) BCA (converted)): 30.9 nM; IC50 ([5]; ZFL, 48 h exposure, nominal, read-out: IC50;nom BCA): 30.9 nM; IC50 ([6]; Danio rerio, read-out: Mean log IC50nom, mean of all cytotoxicity endpoints (without LDH) in ZF4 and ZFL, 48 h, log10 (converted)): 2510 nM; Mean log IC50nom ([6]; mean of all cytotoxicity endpoints (without LDH) in ZF4 and ZFL, log10, listed as Abz): -5.604 M; IC50 ([7]; ATP - ZFL, log10 of IC50, read-out: LogIC50 (converted)): 542 nM; IC50 ([7]; ATP - ZFL, read-out: IC50): 542 nM; IC50 ([7]; ZFL, 48 h exposure, nominal, log10, read-out: logIC50 (log10 IC50;nom) ATP (converted)): 537 nM; IC50 ([7]; ZFL, 48 h exposure, nominal, read-out: IC50;nom ATP): 542 nM; IC50 ([8]; AB - ZFL, log10 of IC50, read-out: LogIC50 (converted)): 3720 nM; IC50 ([8]; AB - ZFL, read-out: IC50): 3720 nM; IC50 ([8]; ZFL, 48 h exposure, nominal, log10, read-out: logIC50 (log10 IC50;nom) AB (converted)): 3720 nM; IC50 ([8]; ZFL, 48 h exposure, nominal, read-out: IC50;nom AB): 3720 nM; IC50 ([9]; NR-fluo - ZFL, log10 of IC50, read-out: LogIC50 (converted)): 724 nM; IC50 ([9]; NR-fluo - ZFL, read-out: IC50): 724 nM; IC50 ([9]; ZFL, 48 h exposure, nominal, log10, read-out: logIC50 (log10 IC50;nom) NRf (converted)): 724 nM; IC50 ([9]; ZFL, 48 h exposure, nominal, read-out: IC50;nom NRf): 724 nM; IC50 ([10]; CFDA - ZFL, log10 of IC50, read-out: LogIC50 (converted)): 221000 nM; IC50 ([10]; CFDA - ZFL, read-out: IC50): 221000 nM; IC50 ([10]; ZFL, 48 h exposure, nominal, log10, read-out: logIC50 (log10 IC50;nom) CFDA (converted)): 219000 nM; IC50 ([10]; ZFL, 48 h exposure, nominal, read-out: IC50;nom CFDA): 221000 nM; IC50 ([11]; AB - ZF4, log10 of IC50, read-out: LogIC50 (converted)): 7790 nM; IC50 ([11]; AB - ZF4, read-out: IC50): 7790 nM; IC50 ([11]; ZF4, 48 h exposure, nominal, log10, read-out: logIC50 (log10 IC50;nom) AB (converted)): 7760 nM; IC50 ([11]; ZF4, 48 h exposure, nominal, read-out: IC50;nom AB): 7790 nM; IC50 ([12]; BCA - ZF4, log10 of IC50, read-out: LogIC50 (converted)): 555 nM; IC50 ([12]; BCA - ZF4, read-out: IC50): 555 nM; IC50 ([12]; ZF4, 48 h exposure, nominal, log10, read-out: logIC50 (log10 IC50;nom) BCA (converted)): 550 nM; IC50 ([12]; ZF4, 48 h exposure, nominal, read-out: IC50;nom BCA): 555 nM; EC50 ([13]; 144 hpf, converted): 158 nM; logEC50 144 hpf ([13]; log10): -6.8 M; IC50 ([14]; MTS - ZFL, log10 of IC50, read-out: LogIC50 (converted)): 418 nM; IC50 ([14]; MTS - ZFL, read-out: IC50): 418 nM; IC50 ([14]; ZFL, 48 h exposure, nominal, log10, read-out: logIC50 (log10 IC50;nom) MTS (converted)): 417 nM; IC50 ([14]; ZFL, 48 h exposure, nominal, read-out: IC50;nom MTS): 418 nM; BCF [15]: 41.2; Physiological charge [15]: 0; logKoa [15]: 9.35; logKow [15]: 3.07; pKa (Strongest Acidic) [15]: 9.51; pKa (Strongest Basic) [15]: 4.27; w_solubility (water solubility) [15]: 85.2 µM; IC50 ([16]; NR-abs - ZFL, log10 of IC50, read-out: LogIC50 (converted)): 904 nM; IC50 ([16]; NR-abs - ZFL, read-out: IC50): 904 nM; IC50 ([16]; ZFL, 48 h exposure, nominal, log10, read-out: logIC50 (log10 IC50;nom) NRa (converted)): 912 nM; IC50 ([16]; ZFL, 48 h exposure, nominal, read-out: IC50;nom NRa): 904 nM; AC50 [17]: 410 nM; IC50 ([18]; CFDA - ZF4, log10 of IC50, read-out: LogIC50 (converted)): 75400 nM; IC50 ([18]; CFDA - ZF4, read-out: IC50): 75400 nM; IC50 ([18]; ZF4, 48 h exposure, nominal, log10, read-out: logIC50 (log10 IC50;nom) CFDA (converted)): 75900 nM; IC50 ([18]; ZF4, 48 h exposure, nominal, read-out: IC50;nom CFDA): 75400 nM; IC50 ([19]; MTS - ZF4, log10 of IC50, read-out: LogIC50 (converted)): 10100 nM; IC50 ([19]; MTS - ZF4, read-out: IC50): 10100 nM; IC50 ([19]; ZF4, 48 h exposure, nominal, log10, read-out: logIC50 (log10 IC50;nom) MTS (converted)): 10000 nM; IC50 ([19]; ZF4, 48 h exposure, nominal, read-out: IC50;nom MTS): 10100 nM
